Measurements: PubChem BioAssay AID248 (DTP/NCI, 2004)
Several values for one entry are separate records, joined by “and”; a condition that tells them apart may be missing. Equal entries are not always repeated. Inconclusive results and toxic doses are left out. No stated cut-off is given here; in the data, active means T/C of 150% or more; inactive means T/C below 125%.

System: L1210 leukemia ip in BDF1 mice, survival T/C
Test: NCI In Vivo Anticancer Drug Screen. Data for tumor model L1210 Leukemia (intraperitoneal) in B6D2F1 (BDF1) mice
Conditions: higher = longer survival
In short: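 Transplanted-tumor mice were given test agent; controls received vehicle only. Survival readings from the two groups were divided (treated over control).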

Measured: T/C

CC[n+]1c(-c2ccccc2)c2cc(N)ccc2c2ccc(N)cc21
inactive: endpoint: mean survival time, dose: 0.63 mg/kg/injection, schedule: Q01DX Z (ip), vehicle: saline 113 % of control | endpoint: mean survival time, dose: 1.25 mg/kg/injection, schedule: Q01DX Z (ip), vehicle: saline 122 % of control | endpoint: mean survival time, dose: 2.25 mg/kg/injection, schedule: Q01DX001 (ip), vehicle: saline 110 % of control and 113 % of control | endpoint: mean survival time, dose: 2.25 mg/kg/injection, schedule: Q07DX003 (ip), vehicle: saline 113 % of control | endpoint: mean survival time, dose: 2.5 mg/kg/injection, schedule: Q01DX005 (ip), vehicle: saline 109 % of control | endpoint: mean survival time, dose: 2.5 mg/kg/injection, schedule: Q01DX009 (ip), vehicle: saline 107 % of control | endpoint: mean survival time, dose: 2.5 mg/kg/injection, schedule: Q## X040 (ip), vehicle: saline 107 % of control | endpoint: mean survival time, dose: 2.5 mg/kg/injection, schedule: Q#A X Z (ip), vehicle: saline 108 % of control | endpoint: mean survival time, dose: 4.4 mg/kg/injection, schedule: Q02DX010 (ip), vehicle: saline 110 % of control | endpoint: mean survival time, dose: 4.5 mg/kg/injection, schedule: Q01DX001 (ip), vehicle: saline 104 % of control and 113 % of control | endpoint: mean survival time, dose: 4.5 mg/kg/injection, schedule: Q07DX003 (ip), vehicle: saline 109 % of control | endpoint: mean survival time, dose: 5.0 mg/kg/injection, schedule: Q01DX005 (ip), vehicle: saline 116 % of control | endpoint: mean survival time, dose: 5.0 mg/kg/injection, schedule: Q01DX006 (iv), vehicle: saline 104 % of control | endpoint: mean survival time, dose: 5.0 mg/kg/injection, schedule: Q01DX009 (ip), vehicle: saline 108 % of control | endpoint: mean survival time, dose: 5.0 mg/kg/injection, schedule: Q01DX Z (im), vehicle: saline 106 % of control | endpoint: mean survival time, dose: 5.0 mg/kg/injection, schedule: Q01DX Z (sc), vehicle: saline 110 % of control | endpoint: mean survival time, dose: 5.0 mg/kg/injection, schedule: Q## X040 (ip), vehicle: saline 111 % of control | endpoint: mean survival time, dose: 5.3 mg/kg/injection, schedule: Q02DX010 (ip), vehicle: saline 116 % of control | endpoint: mean survival time, dose: 6.6 mg/kg/injection, schedule: Q02DX010 (ip), vehicle: saline 116 % of control | endpoint: mean survival time, dose: 9.0 mg/kg/injection, schedule: Q01DX001 (ip), vehicle: saline 113 % of control and 116 % of control | endpoint: mean survival time, dose: 9.0 mg/kg/injection, schedule: Q07DX003 (ip), vehicle: saline 110 % of control | endpoint: mean survival time, dose: 9.9 mg/kg/injection, schedule: Q02DX010 (ip), vehicle: saline 115 % of control | endpoint: mean survival time, dose: 10.0 mg/kg/injection, schedule: Q01DX005 (ip), vehicle: saline 120 % of control | endpoint: mean survival time, dose: 10.0 mg/kg/injection, schedule: Q01DX006 (iv), vehicle: saline 123 % of control | endpoint: mean survival time, dose: 10.0 mg/kg/injection, schedule: Q01DX009 (ip), vehicle: saline 116 % of control | endpoint: mean survival time, dose: 10.0 mg/kg/injection, schedule: Q01DX Z (im), vehicle: saline 119 % of control | endpoint: mean survival time, dose: 10.0 mg/kg/injection, schedule: Q01DX Z (sc), vehicle: saline 116 % of control | endpoint: mean survival time, dose: 10.0 mg/kg/injection, schedule: Q## X040 (ip), vehicle: saline 112 % of control | endpoint: mean survival time, dose: 10.0 mg/kg/injection, schedule: Q#A X Z (ip), vehicle: saline 112 % of control | endpoint: mean survival time, dose: 12.5 mg/kg/injection, schedule: Q04DX003 (ip), vehicle: water 104 % of control | endpoint: mean survival time, dose: 14.85 mg/kg/injection, schedule: Q02DX010 (ip), vehicle: saline 113 % of control | endpoint: mean survival time, dose: 15.0 mg/kg/injection, schedule: Q03DX006 (ip), vehicle: saline 118 % of control | endpoint: mean survival time, dose: 18.0 mg/kg/injection, schedule: Q01DX001 (ip), vehicle: saline 116 % of control and 121 % of control | endpoint: mean survival time, dose: 18.0 mg/kg/injection, schedule: Q07DX003 (ip), vehicle: saline 122 % of control | endpoint: mean survival time, dose: 20.0 mg/kg/injection, schedule: Q01DX001 (ip), vehicle: saline 109 % of control | endpoint: mean survival time, dose: 20.0 mg/kg/injection, schedule: Q01DX001 (sc), vehicle: saline 103 % of control | endpoint: mean survival time, dose: 20.0 mg/kg/injection, schedule: Q01DX003 (ip), vehicle: saline 118 % of control | endpoint: mean survival time, dose: 20.0 mg/kg/injection, schedule: Q01DX005 (ip), vehicle: saline 110 % of control | endpoint: mean survival time, dose: 20.0 mg/kg/injection, schedule: Q01DX009 (ip), vehicle: saline 117 % of control | endpoint: mean survival time, dose: 20.0 mg/kg/injection, schedule: Q01DX Z (im), vehicle: saline 116 % of control | endpoint: mean survival time, dose: 20.0 mg/kg/injection, schedule: Q01DX Z (ip), vehicle: saline 95 % of control | endpoint: mean survival time, dose: 20.0 mg/kg/injection, schedule: Q01DX Z (oral), vehicle: saline 110 % of control | endpoint: mean survival time, dose: 20.0 mg/kg/injection, schedule: Q01DX Z (sc), vehicle: saline 122 % of control | endpoint: mean survival time, dose: 20.0 mg/kg/injection, schedule: Q## X008 (ip), vehicle: saline 94 % of control | endpoint: mean survival time, dose: 20.0 mg/kg/injection, schedule: Q## X024 (ip), vehicle: saline 107 % of control | endpoint: mean survival time, dose: 22.27 mg/kg/injection, schedule: Q02DX010 (ip), vehicle: saline 117 % of control | endpoint: mean survival time, dose: 25.0 mg/kg/injection, schedule: Q04DX003 (ip), vehicle: water 104 % of control | endpoint: mean survival time, dose: 40.0 mg/kg/injection, schedule: Q01DX001 (ip), vehicle: saline 118 % of control | endpoint: mean survival time, dose: 40.0 mg/kg/injection, schedule: Q01DX001 (sc), vehicle: saline 102 % of control | endpoint: mean survival time, dose: 40.0 mg/kg/injection, schedule: Q01DX003 (ip), vehicle: saline 110 % of control | endpoint: mean survival time, dose: 40.0 mg/kg/injection, schedule: Q01DX005 (ip), vehicle: saline 96 % of control | endpoint: mean survival time, dose: 40.0 mg/kg/injection, schedule: Q01DX009 (ip), vehicle: saline 90 % of control | endpoint: mean survival time, dose: 40.0 mg/kg/injection, schedule: Q01DX Z (oral), vehicle: saline 113 % of control | endpoint: mean survival time, dose: 40.0 mg/kg/injection, schedule: Q## X008 (ip), vehicle: saline 95 % of control | endpoint: mean survival time, dose: 40.0 mg/kg/injection, schedule: Q## X024 (ip), vehicle: saline 111 % of control | endpoint: mean survival time, dose: 40.0 mg/kg/injection, schedule: Q## X040 (ip), vehicle: saline 93 % of control | endpoint: mean survival time, dose: 60.0 mg/kg/injection, schedule: Q03DX006 (ip), vehicle: saline 93 % of control | endpoint: mean survival time, dose: 70.0 mg/kg/injection, schedule: Q01DX001 (ip), vehicle: saline 118 % of control and 119 % of control | endpoint: mean survival time, dose: 70.0 mg/kg/injection, schedule: Q07DX003 (ip), vehicle: saline 124 % of control | endpoint: mean survival time, dose: 80.0 mg/kg/injection, schedule: Q01DX001 (ip), vehicle: saline 103 % of control | endpoint: mean survival time, dose: 80.0 mg/kg/injection, schedule: Q01DX001 (sc), vehicle: saline 108 % of control | endpoint: mean survival time, dose: 80.0 mg/kg/injection, schedule: Q01DX003 (ip), vehicle: saline 98 % of control | endpoint: mean survival time, dose: 80.0 mg/kg/injection, schedule: Q01DX Z (oral), vehicle: saline 108 % of control | endpoint: mean survival time, dose: 80.0 mg/kg/injection, schedule: Q## X008 (ip), vehicle: saline 103 % of control | endpoint: mean survival time, dose: 140.0 mg/kg/injection, schedule: Q01DX001 (ip), vehicle: saline 104 % of control and 124 % of control | endpoint: mean survival time, dose: 160.0 mg/kg/injection, schedule: Q01DX001 (ip), vehicle: saline 94 % of control | endpoint: mean survival time, dose: 160.0 mg/kg/injection, schedule: Q01DX Z (oral), vehicle: saline 113 % of control | endpoint: mean survival time, dose: 160.0 mg/kg/injection, schedule: Q## X024 (ip), vehicle: saline 94 % of control | endpoint: mean survival time, dose: 200.0 mg/kg/injection, schedule: Q01DX001 (oral), vehicle: saline 103 % of control | endpoint: mean survival time, dose: 215.0 mg/kg/injection, schedule: Q04DX003 (ip), vehicle: water 109 % of control | endpoint: mean survival time, dose: 400.0 mg/kg/injection, schedule: Q01DX001 (oral), vehicle: saline 103 % of control | endpoint: mean survival time, dose: 430.0 mg/kg/injection, schedule: Q04DX003 (ip), vehicle: water 93 % of control | endpoint: mean survival time, dose: 800.0 mg/kg/injection, schedule: Q01DX001 (oral), vehicle: saline 101 % of control | endpoint: mean survival time, dose: 1600.0 mg/kg/injection, schedule: Q01DX001 (oral), vehicle: saline 102 % of control | endpoint: median survival time, dose: 3.6 mg/kg/injection, schedule: Q01DX005 (ip), vehicle: water 105 % of control | endpoint: median survival time, dose: 5.0 mg/kg/injection, schedule: Q01DX009 (ip), vehicle: water 109 % of control and 110 % of control | endpoint: median survival time, dose: 6.0 mg/kg/injection, schedule: Q01DX005 (ip), vehicle: water 100 % of control | endpoint: median survival time, dose: 10.0 mg/kg/injection, schedule: Q01DX005 (ip), vehicle: water 111 % of control | endpoint: median survival time, dose: 10.0 mg/kg/injection, schedule: Q01DX009 (ip), vehicle: water 116 % of control and 120 % of control | endpoint: median survival time, dose: 17.0 mg/kg/injection, schedule: Q01DX005 (ip), vehicle: water 111 % of control | endpoint: median survival time, dose: 17.0 mg/kg/injection, schedule: Q04DX003 (ip), vehicle: water 100 % of control | endpoint: median survival time, dose: 20.0 mg/kg/injection, schedule: Q01DX009 (ip), vehicle: water 90 % of control | endpoint: median survival time, dose: 29.0 mg/kg/injection, schedule: Q01DX005 (ip), vehicle: water 116 % of control | endpoint: median survival time, dose: 29.0 mg/kg/injection, schedule: Q04DX003 (ip), vehicle: water 100 % of control | endpoint: median survival time, dose: 40.0 mg/kg/injection, schedule: Q01DX009 (ip), vehicle: water 70 % of control | endpoint: median survival time, dose: 48.0 mg/kg/injection, schedule: Q04DX003 (ip), vehicle: water 100 % of control | endpoint: median survival time, dose: 49.0 mg/kg/injection, schedule: Q01DX005 (ip), vehicle: water 116 % of control | endpoint: median survival time, dose: 80.0 mg/kg/injection, schedule: Q04DX003 (ip), vehicle: water 105 % of control | endpoint: median survival time, dose: 134.0 mg/kg/injection, schedule: Q04DX003 (ip), vehicle: water 111 % of control
